Measured values from patent publication US20250019398A1, “NONAMERIC PEPTIDE HAVING EXCELLENT ANTIBACTERIAL ACTIVITY AGAINST GRAM-NEGATIVE BACTERIA AND ENANTIOMER THEREOF” (priority 2021, published 2025).
Converted amounts (≈) assume the structure as drawn. “Also recorded” adds a separate entry of the source. Square brackets hold non-standard residues; d marks the D form. Ends that are not written are not given here. Peptide text beside a SMILES is read from it.

Legend:
E. coli = assay type: cell-based; conditions: 37° C.; for MIC, E. coli + Trypsin: peptide pre-cultured with trypsin 6 hours; for MIC, E. coli + α-Chymotrypsin: peptide pre-cultured with α-chymotrypsin 6 hours
Method: (§1) Proteolysis of peptides in serum has limited clinical use due to decreased bioavailability and half-life. Therefore, the stability of all the peptides pre-exposed to trypsin and chymotrypsin proteases was investigated and the relative growth inhibition of E. coli and A. baumannii was determined (Table 3). […] Thereafter, 100 μL of a peptide-protease mixture was added to 100 μL of a bacterial suspension (E. coli, A. baumannii, 2×10^5 CFU/mL), and the resulting mixture was further cultured at 37°° C. for 16 hours. A bacterial suspension without a peptide and protease was employed as a negative control. An analysis was performed in triplicates through independent experiments, and the degree of bacterial growth was measured at 600 nm using a microplate reader.

A. baumannii = assay type: cell-based; conditions: 37° C.; for MIC, A. baumannii + Trypsin: peptide pre-cultured with trypsin 6 hours; for MIC, A. baumannii + α-Chymotrypsin: peptide pre-cultured with α-chymotrypsin 6 hours
Method: as §1

[1] = test system: Escherichia coli KCTC 1682; assay: MIC, broth dilution; assay type: cell-based; conditions: standard Gram-negative bacteria, 16 hours; read-out: Minimal inhibitory concentration (MIC), E. coli
Excerpt: (§2) In addition, carbapenem-resistant E. coli NCCP16044 and carbapenem-resistant Klebsiella pneumonia NCCP 15782 were obtained from the NCCP, and three types of carbapenem-resistant A. baumanii CCARM 12004-6 were obtained from the Culture Collection of Antimicrobial Resistance Microbes (CCARM) (Cheongju City, Korea). The E. coli K1 (ATCC700973) strain used in the animal experiments was obtained from the American Type Culture Collection (ATCC) ([…]).
(§3) The antimicrobial activities of the peptides were measured by a minimal inhibitory concentration (MIC) analysis. The MIC was determined using a broth dilution method. All bacterial strains were grown overnight at 37° C. in a Muller-Hinton (MH) medium.

[2] = test system: sheep red blood cells (sRBCs); assay: Hemolysis of sheep red blood cells; assay type: cell-based; conditions: for Hemolysis of sRBCs: 100 μM, 1 h
Method: Peptide-induced toxicity was determined by hemolysis of sheep red blood cells (sRBCs). Fresh sRBCs were washed three times or more with phosphate buffered saline (PBS), and debris was removed by centrifugation (1000×g, 5 minutes, 4° C.). All the peptides including a melittin control (0.2 to 100 μM) and a positive control (1% (v/v) Triton X-100) were cultured with 4% (v/v) sRBCs at 37° C. for 1 h, and then centrifuged at 1000×g for 5 minutes. The supernatant was measured at 405 nm using a microplate reader.

[3] = In vivo toxicity (serum AST, ALT, BUN); parameters: species or system ICR mice; conditions: 1 mg/kg and 5 mg/kg i.p., 24 hours
Method: For in vivo toxicity measurements, ICR mice (n=5 per group) were injected intraperitoneally (i.p.) with R-Pro9-3D (1 mg and 5 mg/kg/day in PBS), and serum levels of aspartate aminotransferase (AST) and alanine aminotransferase (ALT) in the liver and BUN (blood urea nitrogen) in the kidney were measured using a standard kit manufactured by ASAN PHARM. Co., LTD.

[4] = test system: carbapenem-resistant E. coli NCCP16044 (CREC 16044); assay: microbe, parasite or virus in culture; assay type: cell-based; conditions: 16 hours, read-out: Minimal inhibitory concentration (MIC), CREC 16044
Excerpt: as §2, with “Among the bacterial strains used in the experiment, Escherichia coli KCTC 1682 was obtained from the Korean Collection for Type Cultures (KCTC) (Jeongeup, Korea), Acinetobacter baumannii KCCM 40203 and Pseudomonas aeruginosa KCCM 11328 were obtained from the Korean Culture Center of Microorganisms (KCCM) (Seoul, Korea), and Klebsiella pneumonia NCCP 16054 was obtained from the National Culture Collection for Pathogens (NCCP) (Osong, Korea). In” for “In”
as §3

[5] = test system: Pseudomonas aeruginosa KCCM 11328; assay: MIC, broth dilution; assay type: cell-based; conditions: standard Gram-negative bacteria, 16 hours
Excerpt: as §2, with “Among the bacterial strains used in the experiment, Escherichia coli KCTC 1682 was obtained from the Korean Collection for Type Cultures (KCTC) (Jeongeup, Korea), Acinetobacter baumannii KCCM 40203 and Pseudomonas aeruginosa KCCM 11328 were obtained from the Korean Culture Center of Microorganisms (KCCM) (Seoul, Korea), and Klebsiella pneumonia NCCP 16054 was obtained from the National Culture Collection for Pathogens (NCCP) (Osong, Korea). In” for “In”
as §3

[6] = test system: Klebsiella pneumonia NCCP 16054; assay: MIC, broth dilution; assay type: cell-based; conditions: standard Gram-negative bacteria, 16 hours
Excerpt: as §2, with “Among the bacterial strains used in the experiment, Escherichia coli KCTC 1682 was obtained from the Korean Collection for Type Cultures (KCTC) (Jeongeup, Korea), Acinetobacter baumannii KCCM 40203 and Pseudomonas aeruginosa KCCM 11328 were obtained from the Korean Culture Center of Microorganisms (KCCM) (Seoul, Korea), and Klebsiella pneumonia NCCP 16054 was obtained from the National Culture Collection for Pathogens (NCCP) (Osong, Korea). In” for “In”
as §3

[7] = test system: carbapenem-resistant Klebsiella pneumonia NCCP 15782 (CRKP 15782); assay: MIC, broth dilution; assay type: cell-based; conditions: 16 hours
Excerpt: as §2, with “Among the bacterial strains used in the experiment, Escherichia coli KCTC 1682 was obtained from the Korean Collection for Type Cultures (KCTC) (Jeongeup, Korea), Acinetobacter baumannii KCCM 40203 and Pseudomonas aeruginosa KCCM 11328 were obtained from the Korean Culture Center of Microorganisms (KCCM) (Seoul, Korea), and Klebsiella pneumonia NCCP 16054 was obtained from the National Culture Collection for Pathogens (NCCP) (Osong, Korea). In” for “In”
as §3

[8] = test system: Acinetobacter baumannii KCCM 40203; assay: MIC, broth dilution; assay type: cell-based; conditions: standard Gram-negative bacteria, 16 hours
Excerpt: as §2, with “Among the bacterial strains used in the experiment, Escherichia coli KCTC 1682 was obtained from the Korean Collection for Type Cultures (KCTC) (Jeongeup, Korea), Acinetobacter baumannii KCCM 40203 and Pseudomonas aeruginosa KCCM 11328 were obtained from the Korean Culture Center of Microorganisms (KCCM) (Seoul, Korea), and Klebsiella pneumonia NCCP 16054 was obtained from the National Culture Collection for Pathogens (NCCP) (Osong, Korea). In” for “In”
as §3

[9] = test system: RAW 264.7 mouse macrophages; assay: WST-8 cytotoxicity; assay type: cell-based; conditions: 100 μM, 24 hours
Method: (§4) Additionally, for a cell-based toxicity assay, RAW 264.7 mouse macrophages and human kidney (HK)-2 cells were obtained from the Korean Cell Line Bank (Seoul, Korea), and cells were maintained in a DMEM culture medium (Thermo Fischer Scientific Inc., MA, USA) supplemented with 10% fetal bovine serum and 1% penicillin/streptomycin at 37° C. in a humidified 5% CO2 incubator. The cytotoxicity of the peptides was analyzed using a WST-8 cell proliferation assay (Biomax Co, Ltd, Seoul, South Korea), and the experiment was performed according to the kit protocol. Cells (1×10^4) were seeded in a 96-well plate, the peptide treatment (0 to 100 μM) were initiated at 80% confluency and then the cells were cultured for 24 hours. After culturing, a WST-8 reagent was added and the change in absorbance was read at 450 nm relative to the reagent blank, and values were expressed as percent cell survival.

[10] = test system: human kidney (HK)-2 cells; assay: WST-8 cytotoxicity; assay type: cell-based; conditions: 100 μM, 24 hours
Method: as §4

[11] = test system: CRAB 12006 (carbapenem-resistant A. baumanii CCARM); assay: MIC, broth dilution; assay type: cell-based, A. baumannii; conditions: 16 hours, read-out: Minimal inhibitory concentration (MIC), CRAB 12006
Excerpt: as §2, with “Among the bacterial strains used in the experiment, Escherichia coli KCTC 1682 was obtained from the Korean Collection for Type Cultures (KCTC) (Jeongeup, Korea), Acinetobacter baumannii KCCM 40203 and Pseudomonas aeruginosa KCCM 11328 were obtained from the Korean Culture Center of Microorganisms (KCCM) (Seoul, Korea), and Klebsiella pneumonia NCCP 16054 was obtained from the National Culture Collection for Pathogens (NCCP) (Osong, Korea). In” for “In”
as §3

[12] = test system: CRAB 12004 (carbapenem-resistant A. baumanii CCARM); assay: MIC, broth dilution; assay type: cell-based, A. baumannii; conditions: 16 hours, read-out: Minimal inhibitory concentration (MIC), CRAB 12004
Excerpt: as §2, with “Among the bacterial strains used in the experiment, Escherichia coli KCTC 1682 was obtained from the Korean Collection for Type Cultures (KCTC) (Jeongeup, Korea), Acinetobacter baumannii KCCM 40203 and Pseudomonas aeruginosa KCCM 11328 were obtained from the Korean Culture Center of Microorganisms (KCCM) (Seoul, Korea), and Klebsiella pneumonia NCCP 16054 was obtained from the National Culture Collection for Pathogens (NCCP) (Osong, Korea). In” for “In”
as §3

[13] = test system: CRAB 12005 (carbapenem-resistant A. baumanii CCARM); assay: MIC, broth dilution; assay type: cell-based, A. baumannii; conditions: 16 hours, read-out: Minimal inhibitory concentration (MIC), CRAB 12005
Excerpt: as §2, with “Among the bacterial strains used in the experiment, Escherichia coli KCTC 1682 was obtained from the Korean Collection for Type Cultures (KCTC) (Jeongeup, Korea), Acinetobacter baumannii KCCM 40203 and Pseudomonas aeruginosa KCCM 11328 were obtained from the Korean Culture Center of Microorganisms (KCCM) (Seoul, Korea), and Klebsiella pneumonia NCCP 16054 was obtained from the National Culture Collection for Pathogens (NCCP) (Osong, Korea). In” for “In”
as §3

[14] = sheep red blood cells, 200 μM used when no detectable hemolysis at 100 μM

| Compound | MIC, E. coli + Trypsin (E. coli) | MIC, E. coli + α-Chymotrypsin (E. coli) | MIC, A. baumannii + Trypsin (A. baumannii) | MIC, A. baumannii + α-Chymotrypsin (A. baumannii) | MIC [1] | Hemolysis of sRBCs [2] | HC10 (peptide concentration that induces 10% hemolysis) [2, 14] | Serum AST, ALT and BUN levels (in vivo toxicity) [3] | MIC [4] | Minimal inhibitory concentration (MIC), P. aeruginosa [5] | Minimal inhibitory concentration (MIC), K. pneumonia [6] | Minimal inhibitory concentration (MIC), CRKP 15782 [7] | Minimal inhibitory concentration (MIC), A. baumannii [8] | Toxicity in RAW264.7 cells [9] | Toxicity in human kidney (HK)-2 cells [10] | MIC [11] | MIC [12] | MIC [13] | HC10 (peptide concentration that induces 10% hemolysis) ([2]; red cells of sheep) |
| --- | --- | --- | --- | --- | --- | --- | --- | --- | --- | --- | --- | --- | --- | --- | --- | --- | --- | --- | --- |
| CC[C@@H](C)[C@@H](NC(=O)[C@@H](Cc1c[nH]c2ccccc12)NC(=O)[C@@H](CCCNC(=N)N)NC(=O)[C@H](N)CCCNC(=N)N)C(=O)N[C@H](C)C(=O)N[C@H](CC(C)C)C(=O)N[C@H](Cc1c[nH]c2ccccc12)C(=O)N[C@H](CC(C)C)C(=O)N[C@H](CCCNC(=N)N)C(N)=O [R-Pro9-3D, rrwialwlr-NH2] (H-[dR][dR][dW][dI][dA][dL][dW][dL][dR]-NH2) | 8 µM | 8 µM | 4 µM | 4 µM | 8 µM (≈ 10.1 µg/mL) | 1.2% | 200 µM | no clinically significant levels; also recorded: did not increase the above enzyme levels | 4 µM (≈ 5.07 µg/mL) | 8 µM (≈ 10.1 µg/mL) | 8 µM (≈ 10.1 µg/mL) | 8 µM (≈ 10.1 µg/mL) | 4 µM (≈ 5.07 µg/mL) | 20.3% | 9.6% | 4 µM (≈ 5.07 µg/mL) | 4 µM (≈ 5.07 µg/mL) | 4 µM (≈ 5.07 µg/mL) |  |
| CC[C@@H](C)[C@@H](NC(=O)[C@@H](C)NC(=O)[C@@H](CC(C)C)NC(=O)[C@@H](Cc1c[nH]c2ccccc12)NC(=O)[C@@H](CC(C)C)NC(=O)[C@H](N)CCCNC(=N)N)C(=O)N[C@H](Cc1c[nH]c2ccccc12)C(=O)N[C@H](CCCNC(=N)N)C(=O)N[C@H](CCCNC(=N)N)C(N)=O [Pro9-3D, rlwlaiwrr-NH2] (H-[dR][dL][dW][dL][dA][dI][dW][dR][dR]-NH2) |  |  |  |  |  |  |  |  | 8 µM (≈ 10.1 µg/mL) |  | 8 µM (≈ 10.1 µg/mL) | 8 µM (≈ 10.1 µg/mL) |  |  |  | 8 µM (≈ 10.1 µg/mL) | 8 µM (≈ 10.1 µg/mL) | 8 µM (≈ 10.1 µg/mL) | 200 µM |
| RRWIALWLR-NH2 [R-Pro9-3] | >64 µM | 64 µM | >64 µM | >64 µM | 16 µM | 3.4% | 200 µM |  | 16 µM | 64 µM | 32 µM | 16 µM | 16 µM | neither R-Pro9-3 nor Pro9-3 showed toxicity; also recorded: non-toxic | neither R-Pro9-3 nor Pro9-3 showed toxicity; also recorded: non-toxic | 16 µM | 32 µM | 16 µM |  |
